Data as given in patent US20160213729A1, “FILIPENDULA VULGARIS EXTRACT AND USES THEREOF” (ABOCA S.P.A. SOCIETA' AGRICOLA, priority 2013, published 2016).

Columns and labels:
Assay type in all cases: cell-based, human
[1] = test system: untransformed normal mesothelial cells (HMC); test: Comet assay, HMC; conditions: single agent
Method: (§6) After the treatment, the cells were trypsinized and immersed in 1% low-melting agarose (Sigma) in PBS and spread onto microscope slides coated beforehand with 1% agarose (Bio-Rad). The cells were lysed in the lysis solution (2.5 M NaCl, 100 mM EDTA, 10 mM Tris base, 8 g/l NaOH, 1% Triton X-100, 10% DMSO) for 1 hour at room temperature and then run into the running solution (300 mM NaOH, 1 mM EDTA, pH 13.0) for 30 minutes, at 25 V and 250 mA. DNA was balanced with 0.4 M Tris, pH 8.0, and the slides dried with methanol. Propidium iodide-DNA (Sigma) and the figures images were taken by using an Axiovert 200M microscope with 40× magnification and an Axiovision (Zeiss) image acquisition software. At least 300 cells per each slide were recorded.

[2] = test system: MSTO211H cells; test: Comet assay, MSTO211H; conditions: single agent
Method: as §6

[3] = test system: mesothelioma cell lines MPM MSTO211H; test: Cell vitality (ATPlite) in co-treatment with pemetrexed, MSTO211H
Method: (§1) Cell lines MSTO211H and NCl-H2052 were used to evaluate the effects of the association of extract of Filipendula vulgaris±anti-tumour drug.
(§2) The assay shown in FIG. 10 was performed using ATPlite™ assay (Perkin Elmer) in accordance with the producer's instructions.
(§3) A solution of water for injectable solutions and ethanol at a concentration of 1:1 was used in the same volumes used for the treatments.
(§4) pemetrexed (Alimta, Lilly) diluted in accordance with the producer's instructions.
(§5) The concentrations of the assayed compound are plotted on the abscissa, whereas the cell vitality expressed in percentage is plotted on the ordinate.

[4] = test system: mesothelioma cell lines MPM NCl-H2052; test: Cell vitality (ATPlite) in co-treatment with pemetrexed, NCl-H2052
Method: as §1, §2, §3, §4, §5

[5] = test system: mesothelial cells (HMC); test: Cell vitality (ATPlite) in co-treatment with pemetrexed, HMC; conditions: pemetrexed alone
Method: as §2, §3, §4, §5

| SMILES | DNA damage / fragmentation [1] | DNA damage / fragmentation [2] | concentration of pemetrexed sufficient to lower the cell vitality in double treatment ([3]; double treatment with extract 6 μg/ml) [µM] | cell vitality, single agent ([3]; pemetrexed alone) | concentration of pemetrexed sufficient to lower the cell vitality in double treatment ([4]; NCl-H2052, double treatment with extract 6 μg/ml) [µM] | cell vitality, single agent ([4]; NCl-H2052, pemetrexed alone) | toxicity for non-tumour cells, single agent [5] |
| --- | --- | --- | --- | --- | --- | --- | --- |
| N.N.[Cl][Pt][Cl] [CDDP, cis-diamminedichloroplatinum] | induces DNA fragmentation | induces DNA fragmentation | – | – | – | – | – |
| Nc1nc2[nH]cc(CCc3ccc(C(=O)N[C@@H](CCC(=O)O)C(=O)O)cc3)c2c(=O)[nH]1 [PMTX, pemetrexed] | – | – | 10 | cytotoxic for the MPM cells | 10 | cytotoxic for the MPM cells | highly toxic for the non-tumour cells |
